This note sets out measurements from US20250082714A1, “METHODS AND COMPOSITIONS FOR THE TREATMENT OR PREVENTION OF MUSCULAR DYSTROPHY” (Stealth BioTherapeutics Inc., priority 2021, published 2025).

One data set deals with dystrophin. As to the kind of experiment: Western blot of dystrophin in tibialis anterior (TA) muscle of treated mdx mice. The class given is in vivo, mouse (C57BL/10ScSn-Dmdmdx/J. To be noted: 7 weeks; for % Dystrophin Average: average of treatment group (n=14-15 mdx mice); for % Dystrophin: individual mdx mouse. On the procedure:
(§1) Treatment groups. Four-week-old C57BL/10ScSnJ (stock #000476) and C57BL/10ScSn-Dmdmdx/J mice (stock #001801) were sourced from Jackson Laboratory in Bar Harbor, USA and sorted into a total of five treatment groups (Table 1). The C57BL/10ScSnJ (BL10) mice received vehicle #1 (1×PBS) and vehicle #2 (0.9% Saline). Of the C57BL/10ScSn-Dmdmdx/J (mdx) groups, one received vehicle #1(1×PBS) and vehicle #2 (0.9% Saline), the second group was treated with PMO (125 mg/kg) and vehicle #2 (0.9% Saline), the third group was treated with vehicle #1 (1×PSB) and MTP-131 (5 mg/kg), and the final group was treated with both PMO (125 mg/kg) and MTP-131 (5 mg/kg). PMO compound and the respective vehicle (1×PBS) was administered weekly via retro-orbital injection. MTP-131 compound and the vehicle (0.9% saline) were administered daily via intraperitoneal (IP) injection. Treatment was for a total of 7 weeks.
Experimental endpoint measures. Upon arrival from Jackson laboratory to the Life Science Research Institute (LSRI) animal facility in Halifax, Canada, 4 week-old BL10 and mdx mice were subjected to a one-week acclimation period to the new facility, after which they were weighed, ear-tagged, and randomized. Once randomized, the animals were treated daily for 7 weeks. During treatment, mice were visually assessed for health (altered food and water consumption, abnormal breathing, circling, eye/hair matting and any other features of abnormal appearance). All treatment groups followed the experimental design outlined in Table 2. In vitro force measurements and takedowns were performed throughout weeks 6-7. Takedowns were staggered to accommodate the in vitro force schedule. Scheduling was representative of the treatment groups.
Treatment preparation—PMO. The phosphorodiamidate morpholino oligomer (PMO) was sourced from Gene Tools, LLC. The PMO used was mExon 23(+07-18) (5′-[…]-3′) (SEQ ID NO: 1) against the boundary sequences of exon and intron 23 of the mouse dystrophin gene. The PMO was prepared fresh weekly by diluting the compound in 1×PBS to the stock concentration of 100 mg/ml. Any remaining compound was stored at 4° C.
Treatment preparation—MTP-131. MTP-131 dosing formulation was prepared weekly and filtered through a […] polyether sulfone (PES) filter. Because MTP-131 is extremely hygroscopic it was conditioned before use and weighed immediately after. If possible, MTP-131 was weighed in a low moisture environment (<20% RH). Prior to use, MTP-131 was removed from the refrigerator. The un-opened bottle was placed in a low moisture environment (<20% RH) and allowed to equilibrate at room temperature for at least 2 hours. Quickly, an aliquot was weighed for use without returning any un-used standard to the bottle and the bottle was immediately tightly capped. Immediately after use, the inside of the bag was wiped with a paper towel to remove any moisture, and the reference bottle (tightly capped) was placed back into the aluminum bag, re-sealed and placed back in 2-8° C. storage.
Treatment administration—PMO. PMO compound was delivered weekly via retro-orbital intravenous injection using a 28-gauge needle. Mice were gently removed from their cage and anesthetized using 5% isoflurane and maintained with 1.5-2% isoflurane. Once the pedal reflex was absent, the mouse was positioned on its side, and loose skin behind the shoulders and ears pinned back using the thumb and middle finger of the non-dominant hand. The skin surrounding the eye was drawn back using the index finger, allowing the eye to protrude slightly. The needle was inserted carefully at a 30° angle with the bevel away from the eye, lateral to the medial canthus, through the conjunctival membrane. Once in the retro-orbital sinus, the compound was slowly injected (10 μl/5-10 seconds). The needle was then carefully removed to prevent injury and leakage. If more than 20 μl of leakage occurred, the injectable was aspirated back into the syringe and injected again. […]

In data set [1] the test system is C57BL/10ScSn-Dmdmdx/J (mdx) mice. The data set can be described thus: H&E inflammation analysis of TA muscle sections. The data set is classed as in vivo, mouse. To be noted: as compared to the mdx vehicle group; PMO 125 mg/kg, MTP-131 5 mg/kg. The procedure:
as §1
Histological analysis—H&E—Inflammation Analysis. TA muscle (n=8/group) was sectioned at 10 μm (2 sections/slide) and stored at −80° C. until the staining was performed. Slides were stained with Hematoxylin & Eosin (H&E) and were analyzed for percent inflammation. An inflammatory focus (pl. foci) was measured by counting 10 or more inflammatory cells in a single cluster. These foci areas were measured in mm2 and then compared to the tissue's total area, from which a percentage was calculated. […]

Setting [2] is: PMO 125 mg/kg weekly, MTP-131 5 mg/kg daily.
Setting [3] is: Run 1, Gel #5, PMO 125 mg/kg weekly retro-orbital, MTP-131 5 mg/kg daily IP.
Setting [4] is: Run 1, Gel #6, PMO 125 mg/kg weekly, MTP-131 5 mg/kg daily.
Setting [5] is: Run 2, Gel #7, PMO 125 mg/kg weekly, MTP-131 5 mg/kg daily.
[6] abbreviates: Run 2, Gel #8, PMO 125 mg/kg weekly, MTP-131 5 mg/kg daily.
[7] abbreviates: Run 3, Gel #9, PMO 125 mg/kg weekly, MTP-131 5 mg/kg daily.
[8] abbreviates: Run 3, Gel #10, PMO 125 mg/kg weekly, MTP-131 5 mg/kg daily.

Several values for one entry are separate records, joined by “and”; a condition that tells them apart may be missing. Equal values may be shown once. Where a SMILES comes first, the peptide text is derived from it. [ ]: non-standard residue; d: D form. Dmt = Cc1cc(O)cc(C)c1C[C@H](N)C(=O)O

As for “PMO: phosphorodiamidate morpholino oligomer mExon 23(+07-18), 5′-GGCCAAACCTCGGCTTACCTGAAAT-3′ (SEQ ID NO: 1), against exon/intron 23 boundary of mouse dystrophin gene; Gene Tools (all phosphorodiamidate morpholino (PMO)) [reference compound]”, in the data set on dystrophin (setting [2]), the “% Dystrophin Average” value came to 3.66%. Further, the “% Dystrophin” value in the data set with dystrophin (setting [3]) is 6.0% and 4.2%; in the data set on dystrophin (setting [4]), 4.7% and 2.7%; in the data set with dystrophin (setting [5]), 1.2% and 1.7% and 7.4%; with dystrophin (setting [6]) it was 3.2% and 1.4%; with dystrophin (setting [7]) it was 1.4% and 3.9%; in the data set with dystrophin (setting [8]), 3.1% and 2.9% and 7.2%. The “inflammation in the tibialis anterior muscles” value in data set [1] is “reduced”.

On to `Cc1cc(O)cc(C)c1C[C@H](NC(=O)[C@H](N)CCCNC(=N)N)C(=O)N[C@@H](CCCCN)C(=O)N[C@@H](Cc1ccccc1)C(N)=O` [MTP-131, H-D-Arg-2′6′-Dmt-Lys-Phe-NH2] (H-[dR][Dmt]KF-NH2), for which the “% Dystrophin Average” value in the data set with dystrophin (setting [2]) was determined as 0.70%. For the same compound, the “% Dystrophin” value was 0.3% and 0.4% and 0.6% in the data set on dystrophin (setting [3]); 1.0% and 1.2% in the data set on dystrophin (setting [4]); 0.8% in the data set with dystrophin (setting [5]); 0.8% in the data set on dystrophin (setting [6]); 1.0% with dystrophin (setting [7]); 0% in the data set with dystrophin (setting [8]). For the same compound, the “% Dystrophin” value with dystrophin (summary by treatment group, PMO 125 mg/kg weekly, MTP-131 5 mg/kg daily) was 1.00% (3×) and 1.10% and 0.00% (2×) and 0.80% (4×) and 0.30% and 0.40% and 0.60% and 1.20%. For the same compound, the “inflammation in the tibialis anterior muscles” value in data set [1] is listed as “reduced”.
